In patent publication US20250134895A1, “METHODS AND COMPOSITIONS FOR TREATING ALPHA-SYNUCLEIN-MEDIATED NEURODEGENERATION” (UNIVERSITY HEALTH NETWORK, priority 2021, published 2025):

Tested on: HSP70 mRNA
Assay: Real-time quantitative RT-PCR of HSP70 mRNA in rat primary cortical neurons
Format: cell-based
Conditions: 10 μM
Protocol: FIG. 18. […] Real-time quantitative RT-PCR was performed with 3 distinct primer sets for HSP70. β-Actin was used as the reference gene and the expression of HSP70 mRNA was analyzed by 2^−ΔΔCT method. The control group treated with DMSO was set as calibrator sample representing the 1×expression. Data are presented as mean±SEM. (n=3 independent experiments, unpaired two-tailed Student's t-test, ** p<0.01)
To investigate the mechanism underlying these drug effects, experiments were directed towards the potential involvement of molecular chaperone HSP70. […] To investigate the in silico predictions of HSP70 interactions with top drug candidates from the Cyclica proteome screening, fluorescence intensity was measured in V1 S-SV2 primary cortical rat neurons (FIGS. 15A and E) for potential effects on α-synuclein oligomers.
Total RNA was isolated from the cultured neurons on DIV 5 using RNeasy Mini Kit (50) (Qiagen, Cat #74104) according to the manufacturer's instructions. RNA quantity and purity were determined by spectrophotometric analysis (NanoDrop 2000c; Thermo Scientific). […] Quantitative real-time PCR was performed in the Quant Studio™ 5 Real-Time PCR System (ThermoFisher Scientific) using Power Track™ SYBR Green Master Mix (Invitrogen, Cat #A46109). […]

## Nc1nc(NC2CC2)c2ncn([C@H]3C=C[C@@H](CO)C3)c2n1 [Abacavir, abacavir]
  HSP70 mRNA levels compared with vehicle control: increased
